Our source for the IC50 values is patent publication US11999732B2, “P2X3 receptor antagonists” (RECORDATI INDUSTRIA CHIMICA E FARMACEUTICA SPA, priority 2018, dated 2024).

One assay has as its target T1, human P2X3 receptor (Homo sapiens, UniProt P56373).
T1 construct: expressed in transfected cells; host or cells: CHO-K1
T1 sequence (P56373 1-397): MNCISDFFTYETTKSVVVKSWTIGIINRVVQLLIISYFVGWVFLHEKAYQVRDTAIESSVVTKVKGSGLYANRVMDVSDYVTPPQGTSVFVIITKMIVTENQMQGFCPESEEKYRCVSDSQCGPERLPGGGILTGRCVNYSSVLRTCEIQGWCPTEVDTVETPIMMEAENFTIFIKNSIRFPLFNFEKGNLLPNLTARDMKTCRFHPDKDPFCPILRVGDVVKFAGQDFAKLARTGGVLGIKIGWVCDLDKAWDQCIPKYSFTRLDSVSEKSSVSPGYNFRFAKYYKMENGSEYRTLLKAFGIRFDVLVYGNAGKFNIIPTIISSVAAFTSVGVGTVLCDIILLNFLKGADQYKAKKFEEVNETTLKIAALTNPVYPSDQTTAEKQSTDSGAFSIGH
Kind of assay: Calcium luminescence (photoprotein) assay in CHO-K1 cells co-expressing human P2X3 receptor, α,β-Met-ATP stimulation, FLEXSTATION readout. It counts as cell-based. The note with it: Table 6; human P2X3 receptor antagonist activity, CHO-K1 cells, α,β-Met-ATP; read-out: h-P2X3 IC50. Here is the method:
The assay for the human purinergic P2X3 receptor has been adapted to the internal screening instrumentation using the FLEXSTATION as reader and a photoprotein as luminescent readout. The assay consists of CHO-K1 cells recombinantly co-expressing the human P2rx3 receptor and a Ca^2+ sensitive photoprotein. Cells are maintained in DMEM F-12 (1:1) mixture (LONZA cat. no BE04-687F/U1) supplemented with 9 mL of 100 mM Sodium Pyruvate (LONZA cat. no BE13-115E), 29 mL of 7.5% Sodium Bicarbonate (LONZA cat. no: BE17-613E), 5.5 mL of 1 M Hepes (LONZA cat. no BE17-737E), 5 mL of 100× Penicillin/Streptomycin (LONZA cat. no DE17-602E) and 50 mL of Fetal Bovine Serum (Sigma cat. no F7524), 1 mg/mL G418 (Sigma cat. no G8168) and 5 µg/ml puromycin (Sigma cat. no P9620). Standard propagation conditions consist of seeding in a P75 flask twice a week, recovering about 20×10^6 cells, corresponding to about 80% confluency. Cells were seeded into black-walled clear bottom 96 well plates at a density of 40000 cells/well in a Tyrode's buffer (Standard Tyrode's buffer: in house solution, 130 mM NaCl, 5 mM KCl, 2 mM CaCl2, 5 mM NaHCO3, 1 mM MgCl2, 20 mM HEPES, pH 7.4). After 24 h the culture medium was replaced with 200 μL/well of coelenterazine in Tyrode's buffer (Coelenterazine: from BIOSYNTH (cat. no C-7001). 10 mM stock solution was prepared in DMSO and glutathione and stored at −20° C.). The plates were incubated for 4 hours at 37° C., and injected with 10 μL/well of test compounds at 25× concentration in Tyrode's buffer. After 4 minutes a second injection of 50 μL/well of 5× α,β-Met-ATP in Tyrode's buffer (α,β-Met-ATP: from Tocris (cat. no 3209), was dissolved at 100 mM in water and stored in aliquots at −20° C.) was performed and the signal of the emitted luminescence was recorded by FLEXSTATION III (Molecular Devices).
The inhibition curves of the tested compounds at cloned P2X3 receptor were determined by nonlinear regression analysis using software Prism 4.0 (Graphpad, San Diego, Calif.). The IC50 values and pseudo-Hill slope coefficients were estimated by the program.
For `COc1cc(CN2C(=O)N3C(=NCC3C3CCCCC3)c3ncc(N4CCOCC4)cc32)cc(OC)c1` (stereo not drawn) [Example 44, 3-cyclohexyl-6-(3,5-dimethoxybenzyl)-8-(morpholin-4-yl)-2,6-dihydroimidazo[1,2-c]pyrido[2,3-e]pyrimidin-5(3H)-one], the IC50 (commonly the concentration at which inhibition is half-maximal) turned out to be 491 nM. Same read-out and setting: the value for `CCC1CN2C(=O)N(Cc3cc(OC)cc(OC)c3)c3cc(N4CCOCC4)cnc3C2=N1` (stereo not drawn) [Example 5, 6-(3,5-dimethoxybenzyl)-2-ethyl-8-(morpholin-4-yl)-2,6-dihydroimidazo[1,2-c]pyrido[2,3-e]pyrimidin-5(3H)-one] was 278 nM. On the same count and under the same terms, the value for `CCC1CN=C2c3ncc(N4CCOCC4)cc3N(Cc3ccc(OC)cc3)C(=O)N21` (stereo not drawn) [Example 53, 3-ethyl-6-(4-methoxybenzyl)-8-(morpholin-4-y1)-2,6-dihydroimidazo[1,2-c]pyrido[2,3-e]pyrimidin-5(3H)-one] was 2070 nM; that for `CC(C)C1CN2C(=O)N(Cc3ccc(Cl)cc3)c3cc(N4CCC(O)CC4)cnc3C2=N1` (stereo not drawn) [Example 51, 6-(4-chlorobenzyl)-8-(4-hydroxypiperidin-1-yl)-2-(propan-2-yl)-2,6-dihydroimidazo[1,2-c]pyrido[2,3-e]pyrimidin-5(3H)-one] was 731 nM.

With `COc1ccc(CN2C(=O)N3CC(C(C)(C)C)N=C3c3ncc(N4CCOCC4)cc32)cc1` (stereo not drawn) [Example 32, 2-tert-butyl-6-(4-methoxybenzyl)-8-(morpholin-4-yl)-2,6-dihydroimidazo[1,2-c]pyrido[2,3-e]pyrimidin-5(3H)-one], the IC50 stood at 124 nM. Still for that read-out and setting: the value for `COc1ccc(CN2C(=O)N3C(=NCC3CC(C)C)c3ncc(N4CCOCC4)cc32)cc1` (stereo not drawn) [Example 38, 6-(4-methoxybenzyl)-3-(2-methylpropyl)-8-(morpholin-4-yl)-2,6-dihydroimidazo[1,2-c]pyrido[2,3-e]pyrimidin-5(3H)-one] was 2040 nM; that for `COc1ccc(CN2C(=O)N3C(=NCC3COC(C)(C)C)c3ncc(N4CCOCC4)cc32)cc1` (stereo not drawn) [Example 67, 3-(tert-butoxymethyl)-6-(4-methoxybenzyl)-8-(morpholin-4-yl)-2,6-dihydroimidazo[1,2-c]pyrido[2,3-e]pyrimidin-5(3H)-one] was 218 nM; that for `CC(C)C1CN2C(=O)N(Cc3ccc(Cl)cc3)c3cc(N4CC5(COC5)C4)cnc3C2=N1` (stereo not drawn) [Example 15, 6-(4-chlorobenzyl)-8-(2-oxa-6-azaspiro[3.3]heptan-6-yl)-2-(propan-2-y1)-2,6-dihydroimidazo[1,2-c]pyrido[2,3-e]pyrimidin-5(3H)-one] was 1430 nM.

Still in this assay, the particulars now being: Table 7; human P2X3 receptor antagonist activity, CHO-K1 cells, α,β-Met-ATP; read-out: h-P2X3 IC50.
For the compound `COCC1CN(c2cnc3c(c2)n(Cc2ccc(OC)cc2)c(=O)n2c(C)c(C(C)C)nc32)C1` [Example 92, 6-(4-methoxybenzyl)-8-[3-(methoxymethyl)azetidin-1-y1]-3-methyl-2-(propan-2-yl)imidazo[1,2-c]pyrido[2,3-e]pyrimidin-5(6H)-one], the IC50 came out at 802 nM. Same read-out and setting: the value for `Cc1ccc(Cn2c(=O)n3cc(CC(C)C)nc3c3ncccc32)cc1` [Example 72, 6-(4-methylbenzyl)-2-(2-methylpropyl)imidazo[1,2-c]pyrido[2,3-e]pyrimidin-5(6H)-one] was 1390 nM; that for `COc1cc(Cn2c(=O)n3c(C)c(C(C)C)nc3c3ncc(N4CCC(OC)CC4)cc32)cc(OC)c1` [Example 87, 6-(3,5-dimethoxybenzyl)-8-(4-methoxypiperidin-1-yl)-3-methyl-2-(propan-2-yl)imidazo[1,2-c]pyrido[2,3-e]pyrimidin-5(6H)-one] was 444 nM.

`CC(C)c1nnc2c3ncc(N4CCOCC4)cc3n(Cc3ccc(Cl)cc3)c(=O)n12` [Example 99, 6-(4-chlorobenzyl)-8-(morpholin-4-yl)-3-(propan-2-yl)pyrido[2,3-e][1,2,4]triazolo[4,3-c]pyrimidin-5(6H)-one]: the IC50 was determined as 121 nM.

For `COc1cc(Cn2c(=O)n3c(C)c(C)nc3c3ncc(N4CCC(OC)CC4)cc32)cc(OC)c1` [Example 85, 6-(3,5-dimethoxybenzyl)-8-(4-methoxypiperidin-1-yl)-2,3-dimethylimidazo[1,2-c]pyrido[2,3-e]pyrimidin-5(6H)-one], the IC50 was determined as 1300 nM. On the same count and under the same terms, the value for `COc1cc(Cn2c(=O)n3c(C)c(C(C)C)nc3c3ncc(N4CCOCC4)cc32)cc(OC)c1` [Example 79, 6-(3,5-dimethoxybenzyl)-3-methyl-8-(morpholin-4-yl)-2-(propan-2-yl)imidazo[1,2-c]pyrido[2,3-e]pyrimidin-5(6H)-one] was 53.7 nM; that for `COc1cc(Cn2c(=O)n3c(C)c(C)nc3c3ncc(N4CCOCC4)cc32)cc(OC)c1` [Example 82, 6-(3,5-dimethoxybenzyl)-2,3-dimethyl-8-(morpholin-4-yl)imidazo[1,2-c]pyrido[2,3-e]pyrimidin-5(6H)-one] was 332 nM. Still for that read-out and setting: the value for `O=c1n(Cc2ccc(Cl)cc2)c2cc(N3CCOCC3)cnc2c2nnc(Cc3cccnc3O)n12` [Example 105, 6-(4-chlorobenzyl)-3-[(2-hydroxypyridin-3-yl)methyl]-8-(morpholin-4-yl)pyrido[2,3-e][1,2,4]triazolo[4,3-c]pyrimidin-5(6H)-one] was 655 nM. On the same count and under the same terms, the value for `CC(C)NC(=O)Cc1nnc2c3ncc(N4CCOCC4)cc3n(Cc3ccc(Cl)cc3)c(=O)n12` [Example 103, 2-[6-(4-chlorobenzyl)-8-(morpholin-4-y1)-5-oxo-5,6-dihydropyrido[2,3-e][1,2,4]triazolo[4,3-c]pyrimidin-3-yl]-n-(propan-2-yl)acetamide] was 811 nM.

The same assay, now with this note: Table 8; human P2X3 receptor antagonist activity, CHO-K1 cells, α,β-Met-ATP; read-out: h-P2X3 IC50.
In the case of `Clc1ccc(Cc2nn3c(CC4CCOCC4)nnc3c3ncc(N4CCOCC4)cc23)cc1` [Example 126, 6-(4-chlorobenzyl)-8-(morpholin-4-yl)-3-(tetrahydro-2H-pyran-4-ylmethyl)pyrido[2,3-d][1,2,4]triazolo[4,3-b]pyridazine], the IC50 amounted to 20.6 nM. Still for that read-out and setting: the value for `COc1ccc(Cc2nn3c(C(C)(C)C)nnc3c3ncc(N4CCOCC4)cc23)cc1` [Example 123, 3-tert-butyl-6-(4-methoxybenzyl)-8-(morpholin-4-yl)pyrido[2,3-d][1,2,4]triazolo[4,3-b]pyridazine] was 246 nM; that for `CC(C)c1nnc2c3ncc(N4CCOCC4)cc3c(Cc3ccc(Cl)cc3)nn12` [Example 127, 6-(4-chlorobenzyl)-8-(morpholin-4-yl)-3-(propan-2-yl)pyrido[2,3-d][1,2,4]triazolo[4,3-b]pyridazine] was 147 nM; that for `CC(C)Cc1nnc2c3ncc(N4CCOCC4)cc3c(Cc3ccc(Cl)cc3)nn12` [Example 133, 6-(4-chlorobenzyl)-3-(2-methylpropyl)-8-(morpholin-4-yl)pyrido[2,3-d][1,2,4]triazolo[4,3-b]pyridazine] was 217 nM. `COc1ccc(Cc2nn3c(C(C)C)nnc3c3ncc(N4CCOCC4)cc23)cc1` [Example 122, 6-(4-methoxybenzyl)-8-(morpholin-4-yl)-3-(propan-2-yl)pyrido[2,3-d][1,2,4]triazolo[4,3-b]pyridazine]: the IC50 amounted to 1810 nM.

Staying with this assay, now noted: Table 9; human P2X3 receptor antagonist activity, CHO-K1 cells, α,β-Met-ATP; read-out: h-P2X3 IC50.
As for `CC(C)c1nnc2c3ncc(N4CCC(O)CC4)cc3n(Cc3ccc(Cl)cc3)c(=O)n12` [Example 171, 6-(4-chlorobenzyl)-8-(4-hydroxypiperidin-1-yl)-3-(propan-2-yl)pyrido[2,3-e][1,2,4]triazolo[4,3-c]pyrimidin-5(6H)-one], the IC50 stood at 700 nM. In the case of `CCN(CC)c1cnc2c(c1)N(Cc1ccc(OC)cc1)C(=O)N1C2=NC(=O)C1C(C)(C)C` (stereo not drawn) [Example 165, 3-tert-butyl-8-(diethylamino)-6-(4-methoxybenzyl)imidazo[1,2-c]pyrido[2,3-e]pyrimidine-2,5(3H,6H)-dione], the IC50 worked out at 702 nM.
